The nature of this data set: Maximal solubility of the synthetic peptides in water and in DMSO (sheet Peptide_mixes). Format: physicochemical. The following applies: for max solve (DMSO): in DMSO, number in brackets in the cell; for max solve water: in water, number before the bracket in the cell. The source says: Supplement elife-90674-supp3.xlsx, sheet "Peptide_mixes"

Residues, ends and D or L forms follow the SMILES beside them.

With `CC(C)C[C@H](NC(=O)CNC(=O)[C@@H]1CCCN1C(=O)[C@@H]1CCCN1C(=O)[C@@H](N)CS)C(=O)N[C@@H](Cc1c[nH]c2ccccc12)C(=O)N[C@@H](CS)C(N)=O` [Am_CCa] (H-CPPGLWC-NH2), the “max solve (DMSO)” value was determined as 10 mg/mL and the max solve water came out at 5 mg/mL.

Turning to `CC(C)C[C@H](NC(=O)[C@H](CO)NC(=O)[C@H](CCC(=O)O)NC(=O)CNC(=O)[C@H](CC(=O)O)NC(=O)[C@@H](NC(=O)[C@H](CCC(=O)O)NC(=O)[C@@H]1CCC(=O)N1)[C@@H](C)O)C(=O)N[C@@H](CCCCN)C(=O)N[C@@H](CCCCN)C(=O)N[C@@H](C)C(=O)N[C@@H](CCC(=O)O)C(=O)N[C@@H](CCC(=O)O)C(=O)N[C@@H](CCC(=O)O)C(=O)N[C@@H](Cc1ccccc1)C(=O)N[C@H](C(=O)O)C(C)C` [EFV] (HELM PEPTIDE1{[Glp].E.T.D.G.E.S.L.K.K.A.E.E.E.F.V}$$$$V2.0), the “max solve (DMSO)” value is 10 mg/mL and the max solve water amounted to 5 mg/mL.

Regarding `C[C@H](NC(=O)[C@H](CCCCN)NC(=O)[C@H](Cc1ccccc1)NC(=O)[C@@H](N)Cc1ccccc1)C(N)=O` [FFKAa] (H-FFKA-NH2), the “max solve (DMSO)” value is listed as 10 (10) mg/ml and the max solve water was 10 (10) mg/ml.

As to `CC(C)C[C@H](NC(=O)[C@@H](N)Cc1ccccc1)C(=O)N[C@@H](CCCNC(=N)N)C(=O)N[C@@H](CC(N)=O)C(N)=O` [FLRNa] (H-FLRN-NH2), the “max solve (DMSO)” value was 10 (10) mg/ml and the max solve water was 10 (10) mg/ml.

Take `CSCC[C@H](NC(=O)[C@H](CC(C)C)NC(=O)CNC(=O)[C@@H]1CCC(=O)N1)C(=O)N[C@@H](Cc1ccccc1)C(=O)N[C@@H](CCCNC(=N)N)C(=O)N1CCC[C@H]1C(N)=O` [FRPa2] (HELM PEPTIDE1{[Glp].G.L.M.F.R.P.[am]}$$$$V2.0): the “max solve (DMSO)” value was 10 mg/mL and the max solve water was found to be 5 mg/mL.

`CC(C)C[C@H](NC(=O)[C@@H]1CCC(=O)N1)C(=O)N[C@@H](Cc1ccccc1)C(=O)N[C@@H](CCCNC(=N)N)C(=O)N1CCC[C@H]1C(N)=O` [FRPa4] (HELM PEPTIDE1{[Glp].L.F.R.P.[am]}$$$$V2.0): the “max solve (DMSO)” value is on record as 10 (10) mg/ml and the max solve water is 10 (10) mg/ml.

With `CC[C@H](C)[C@H](NC(=O)[C@H](CC(C)C)NC(=O)[C@@H]1CCC(=O)N1)C(=O)N[C@@H](Cc1ccccc1)C(=O)N[C@@H](CCCNC(=N)N)C(=O)N1CCC[C@H]1C(N)=O` [FRPa] (HELM PEPTIDE1{[Glp].L.I.F.R.P.[am]}$$$$V2.0), the “max solve (DMSO)” value amounted to 10 mg/mL and the max solve water came out at 5 mg/mL.

For `CC(C)[C@H](NC(=O)[C@H](CCCNC(=N)N)NC(=O)[C@H](Cc1ccc(O)cc1)NC(=O)[C@@H](N)Cc1ccccc1)C(N)=O` [FYRVa] (H-FYRV-NH2), the “max solve (DMSO)” value was determined as 10 mg/mL and the max solve water came to 2 mg/mL.

On to `CC(C)C[C@H](NC(=O)CNC(=O)[C@@H]1CCCN1C(=O)[C@@H]1CCCN1C(=O)[C@H](CS)NC(=O)[C@@H]1CCC(=O)N1)C(=O)N[C@@H](Cc1c[nH]c2ccccc12)C(=O)NCC(=O)N[C@@H](CS)C(=O)O` [GLWG] (HELM PEPTIDE1{[Glp].C.P.P.G.L.W.G.C}$$$$V2.0), for which the “max solve (DMSO)” value was 10 (10) mg/ml and the max solve water is 10 (10) mg/ml.

`CC(C)C[C@@H]1NC(=O)CNC(=O)[C@@H]2CCCN2C(=O)[C@@H]2CCCN2C(=O)[C@@H](NC(=O)[C@@H]2CCC(=O)N2)CSSC[C@@H](C(=O)O)NC(=O)CNC(=O)[C@H](Cc2c[nH]c3ccccc23)NC1=O` [GLWGcc] (HELM PEPTIDE1{[Glp].C.P.P.G.L.W.G.C}$PEPTIDE1,PEPTIDE1,2:R3-9:R3$$$V2.0): the “max solve (DMSO)” value worked out at 10 mg/mL and the max solve water came to 2 mg/mL.

Consider `CC(C)C[C@H](NC(=O)[C@H](CCCNC(=N)N)NC(=O)[C@@H](NC(=O)[C@H](CC(N)=O)NC(=O)[C@H](C)NC(=O)[C@H](CCCCN)NC(=O)[C@H](CS)NC(=O)[C@H](CC(C)C)NC(=O)[C@H](Cc1c[nH]c2ccccc12)NC(=O)[C@H](CC(C)C)NC(=O)CNC(=O)[C@@H]1CCCN1C(=O)[C@@H]1CCCN1C(=O)[C@H](CS)NC(=O)[C@H](Cc1c[nH]cn1)NC(=O)CNC(=O)[C@H](CC(N)=O)NC(=O)[C@@H]1CCC(=O)N1)[C@@H](C)O)C(=O)O` [GLWL] (HELM PEPTIDE1{[Glp].N.G.H.C.P.P.G.L.W.L.C.K.A.N.T.R.L}$$$$V2.0), for which the “max solve (DMSO)” value is 10 mg/mL and the max solve water came out at 5 mg/mL.

Consider `CC(C)C[C@H](NC(=O)[C@H](CCCNC(=N)N)NC(=O)[C@@H](NC(=O)[C@H](CC(N)=O)NC(=O)[C@H](C)NC(=O)[C@H](CCCCN)NC(=O)[C@@H]1CSSC[C@H](NC(=O)[C@H](Cc2c[nH]cn2)NC(=O)CNC(=O)[C@H](CC(N)=O)NC(=O)[C@@H]2CCC(=O)N2)C(=O)N2CCC[C@H]2C(=O)N2CCC[C@H]2C(=O)NCC(=O)N[C@@H](CC(C)C)C(=O)N[C@@H](Cc2c[nH]c3ccccc23)C(=O)N[C@@H](CC(C)C)C(=O)N1)[C@@H](C)O)C(=O)O` [GLWLcc] (HELM PEPTIDE1{[Glp].N.G.H.C.P.P.G.L.W.L.C.K.A.N.T.R.L}$PEPTIDE1,PEPTIDE1,5:R3-12:R3$$$V2.0), for which the “max solve (DMSO)” value was 5 (5) mg/ml and the max solve water is reported as 5 (5) mg/ml.

As to `CC(C)C[C@H](NC(=O)CNC(=O)[C@@H]1CCCN1C(=O)[C@H](C)NC(=O)CNC(=O)[C@H](C)NC(=O)[C@@H]1CCC(=O)N1)C(=O)N[C@@H](Cc1c[nH]c2ccccc12)C(N)=O` [GLWa1] (HELM PEPTIDE1{[Glp].A.G.A.P.G.L.W.[am]}$$$$V2.0), the “max solve (DMSO)” value was 10 mg/mL and the max solve water is 5 mg/mL.

As to `CC(C)C[C@H](NC(=O)CNC(=O)[C@@H]1CCCN1C(=O)[C@@H]1CCCN1C(=O)CNC(=O)[C@H](C)NC(=O)[C@@H]1CCC(=O)N1)C(=O)N[C@@H](Cc1c[nH]c2ccccc12)C(N)=O` [GLWa2] (HELM PEPTIDE1{[Glp].A.G.P.P.G.L.W.[am]}$$$$V2.0), the “max solve (DMSO)” value is 10 (10) mg/ml and the max solve water was 10 (10) mg/ml.

For the molecule `CSCC[C@H](NC(=O)[C@H](C)NC(=O)[C@@H]1CCC(=O)N1)C(=O)N[C@@H](CCC(N)=O)C(=O)N[C@@H](Cc1c[nH]c2ccccc12)C(=O)NCC(=O)N[C@@H](Cc1c[nH]cn1)C(=O)N[C@@H](CCCCN)C(=O)NCC(=O)N[C@@H](Cc1c[nH]c2ccccc12)C(=O)N[C@@H](C)C(=O)O` [GWA1] (HELM PEPTIDE1{[Glp].A.M.Q.W.G.H.K.G.W.A}$$$$V2.0), the “max solve (DMSO)” value was 10 mg/mL and the max solve water is 0 mg/mL.

In the case of `CC[C@H](C)[C@H](NC(=O)[C@H](Cc1c[nH]cn1)NC(=O)[C@H](Cc1ccccc1)NC(=O)[C@H](Cc1ccccc1)NC(=O)[C@H](CO)NC(=O)[C@@H]1CCCN1C(=O)[C@H](CCC(=O)O)NC(=O)CNC(=O)[C@H](CC(C)C)NC(=O)[C@H](CC(=O)O)NC(=O)[C@H](CC(C)C)NC(=O)[C@H](Cc1ccc(O)cc1)NC(=O)[C@@H]1CCCN1C(=O)[C@@H]1CCCN1C(=O)[C@@H]1CCC(=O)N1)C(=O)N[C@@H](CCCNC(=N)N)C(N)=O` [HIRa1] (HELM PEPTIDE1{[Glp].P.P.Y.L.D.L.G.E.P.S.F.F.H.I.R.[am]}$$$$V2.0), the “max solve (DMSO)” value is 10 (10) mg/ml and the max solve water was 10 (10) mg/ml.

As for `CC[C@H](C)[C@H](NC(=O)[C@H](Cc1c[nH]cn1)NC(=O)[C@H](Cc1ccccc1)NC(=O)[C@H](Cc1ccc(O)cc1)NC(=O)[C@H](C)NC(=O)[C@@H]1CCCN1C(=O)[C@@H](NC(=O)[C@H](CC(C)C)NC(=O)[C@H](CC(=O)O)NC(=O)[C@H](CC(C)C)NC(=O)[C@H](Cc1ccc(O)cc1)NC(=O)[C@@H]1CCCN1C(=O)[C@@H]1CCCN1C(=O)[C@@H]1CCC(=O)N1)[C@@H](C)O)C(=O)N[C@@H](CCCNC(=N)N)C(N)=O` [HIRa3] (HELM PEPTIDE1{[Glp].P.P.Y.L.D.L.T.P.A.Y.F.H.I.R.[am]}$$$$V2.0), the “max solve (DMSO)” value came to 10 mg/mL and the max solve water was 5 mg/mL.

Regarding `CC[C@H](C)[C@H](NC(=O)[C@H](Cc1c[nH]cn1)NC(=O)[C@H](Cc1ccccc1)NC(=O)[C@H](Cc1ccc(O)cc1)NC(=O)[C@H](C)NC(=O)[C@@H]1CCCN1C(=O)CNC(=O)[C@H](CC(C)C)NC(=O)[C@H](CC(=O)O)NC(=O)[C@H](CC(C)C)NC(=O)[C@@H]1CCCN1C(=O)[C@@H]1CCCN1C(=O)[C@@H]1CCC(=O)N1)C(=O)N[C@@H](CCCNC(=N)N)C(N)=O` [HIRa4] (HELM PEPTIDE1{[Glp].P.P.L.D.L.G.P.A.Y.F.H.I.R.[am]}$$$$V2.0), the “max solve (DMSO)” value came to 10 mg/mL and the max solve water came to 5 mg/mL.

With `CC(C)C[C@H](NC(=O)[C@H](Cc1c[nH]cn1)NC(=O)[C@H](CO)NC(=O)[C@H](CC(C)C)NC(=O)[C@@H]1CCCN1C(=O)[C@@H]1CCCN1C(=O)[C@@H]1CCC(=O)N1)C(=O)N[C@@H](CO)C(N)=O` [HLSa] (HELM PEPTIDE1{[Glp].P.P.L.S.H.L.S.[am]}$$$$V2.0), the “max solve (DMSO)” value turned out to be 5 mg/mL and the max solve water is 0 mg/mL.

Consider `CC(C)C[C@H](NC(=O)[C@H](CO)NC(=O)[C@H](C)NC(=O)[C@@H](NC(=O)[C@H](CC(=O)O)NC(=O)[C@H](CC(N)=O)NC(=O)[C@H](CCC(=O)O)NC(=O)[C@H](CO)NC(=O)[C@@H](NC(=O)[C@H](CCC(=O)O)NC(=O)[C@H](CO)NC(=O)[C@@H](NC(=O)[C@H](CO)NC(=O)[C@@H]1CCCN1C(=O)[C@H](CC(C)C)NC(=O)[C@@H]1CCC(=O)N1)C(C)C)C(C)C)C(C)C)C(=O)N[C@@H](CC(C)C)C(=O)N[C@@H](CCCNC(=N)N)C(=O)N[C@@H](CCC(=O)O)C(=O)O` [LRE] (HELM PEPTIDE1{[Glp].L.P.S.V.S.E.V.S.E.N.D.V.A.S.L.L.R.E}$$$$V2.0), for which the “max solve (DMSO)” value was 5 mg/mL and the max solve water amounted to 0 mg/mL.

In the case of `CC(C)C[C@H](NC(=O)CNC(=O)[C@@H]1CCC(=O)N1)C(=O)N[C@@H](CCCNC(=N)N)C(=O)N[C@@H](Cc1c[nH]c2ccccc12)C(N)=O` [LRWa1] (HELM PEPTIDE1{[Glp].G.L.R.W.[am]}$$$$V2.0), the “max solve (DMSO)” value was 5 mg/mL and the max solve water stood at 0 mg/mL.

Turning to `CC(C)C[C@H](NC(=O)CNC(=O)CNC(=O)[C@@H]1CCC(=O)N1)C(=O)N[C@@H](CCCNC(=N)N)C(=O)N[C@@H](Cc1c[nH]c2ccccc12)C(N)=O` [LRWa2] (HELM PEPTIDE1{[Glp].G.G.L.R.W.[am]}$$$$V2.0), the “max solve (DMSO)” value was found to be 10 mg/mL and the max solve water turned out to be 5 mg/mL.

These data come from PMC11087051, “Large-scale deorphanization of Nematostella vectensis neuropeptide G protein-coupled receptors supports the independent expansion of bilaterian and cnidarian peptidergic systems” (eLife, 2024).
